Experimental data reported in US12060349B2, “Glucosylceramide synthase inhibitors” (Genzyme Corporation, priority 2012, dated 2024).
Like-named read-outs stand apart in the source and are kept apart here.

Tests used:
[1] = test system: C32 human melanoma cells; experiment: cell viability in the C32 cell-based assay (Viability, C32 IC50); details: concentration causing 50% cell death, values greater than 10 represent a lack of cell death, read-out: Viability, C32 IC50
Procedure: (§1) The cell based assay was performed in two different cell types, B16 and C32. Cell viability was also assessed in the second, cell-based assay.
(§2) The “Compound Number” in the table corresponds to the compound disclosed in the Example of the same number. […] The results of the cell based assays (performed in two different cell systems, i.e. B16 mouse melanoma or C32 human melanoma cells) are expressed as “GM3 B16 IC50” or “GM3 C32 IC50” for the B16 assay and the C32 assay, respectively. […] The results of the viability assays are expressed as “Viability, B16 IC50” or “Viability, C32 IC50”, respectively. These values represent the concentration of the compound causing 50% cell death. Values greater than 10 represent a lack of cell death.

[2] = test system: GM3 expression on the cell surface, C32 human melanoma cells; experiment: cell based phenotypic assay, cell surface GM3 by antibody mediated immunofluorescence, C32 (GM3 C32 IC50); details: Homo sapiens, 50% inhibition of GM3 expression on the cell surface
Procedure: as §1, §2

[3] = test system: GM3 expression on the cell surface, B16 mouse melanoma cells; experiment: cell based phenotypic assay, cell surface GM3 by antibody mediated immunofluorescence, B16 (GM3 B16 IC50); details: Mus musculus, 50% inhibition of GM3 expression on the cell surface
Procedure: as §1, §2

[4] = biological target: T1, glucosylceramide synthase (Homo sapiens, UniProt Q16739); experiment: microsomal assay measuring conversion of ceramide to glucosylceramide by HPLC (GCS IC50); assay type: biochemical; details: concentration causing 50% inhibition of glucosylceramide synthase activity
T1 construct: Microsomes were isolated from A375 human melanoma cells; endogenous in cells; host or cells: A375 human melanoma cells (microsomal fraction, 100,000 g pellet)
T1 sequence (Q16739 1-394): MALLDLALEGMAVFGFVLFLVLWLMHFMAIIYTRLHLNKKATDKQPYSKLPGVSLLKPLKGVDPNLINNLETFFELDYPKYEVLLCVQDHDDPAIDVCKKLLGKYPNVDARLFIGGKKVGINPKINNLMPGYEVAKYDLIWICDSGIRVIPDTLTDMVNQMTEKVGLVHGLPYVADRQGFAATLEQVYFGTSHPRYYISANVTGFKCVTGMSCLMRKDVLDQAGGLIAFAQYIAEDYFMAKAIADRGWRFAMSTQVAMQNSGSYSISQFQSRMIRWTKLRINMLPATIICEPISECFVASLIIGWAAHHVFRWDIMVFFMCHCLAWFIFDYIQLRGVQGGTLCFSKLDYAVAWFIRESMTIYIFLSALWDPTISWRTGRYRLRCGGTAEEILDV
Procedure: Inhibition of glucosylceramide synthase activity for certain compounds of the invention were measured with 1) a microsomal assay that directly measures the conversion of ceramide to glucosylceramide by HPLC and 2) second, cell based, phenotypic assay that monitors cell surface expression of the downstream lipid GM3 by antibody mediated immunofluorescence. The cell based assay was performed in two different cell types, B16 and C32. Cell viability was also assessed in the second, cell-based assay.
The “Compound Number” in the table corresponds to the compound disclosed in the Example of the same number. The results of the microsomal assay are expressed as “GCS IC50”, which represents the concentration of the compound causing 50% inhibition of glucosylceramide synthase activity. The results of the cell based assays (performed in two different cell systems, i.e. B16 mouse melanoma or C32 human melanoma cells) are expressed as “GM3 B16 IC50” or “GM3 C32 IC50” for the B16 assay and the C32 assay, respectively. These values represent the concentration of the compound causing 50% inhibition of GM3 expression on the cell surface. The results of the viability assays are expressed as “Viability, B16 IC50” or “Viability, C32 IC50”, respectively. These values represent the concentration of the compound causing 50% cell death. Values greater than 10 represent a lack of cell death.

[5] = test system: B16 mouse melanoma cells; experiment: cell viability in the B16 cell-based assay (Viability, B16 IC50); details: concentration causing 50% cell death, values greater than 10 represent a lack of cell death, read-out: Viability, B16 IC50
Procedure: as §1, §2

[6] = C32 human melanoma cells, read-out: GM3 C32 IC50
[7] = B16 mouse melanoma cells, read-out: GM3 B16 IC50

Row | Structure (SMILES) | IC50 [2, 6] [µM] | IC50 [3, 7] [µM] | IC50 [4] [µM] | IC50 ([1]; Homo sapiens, C32, C32 cells) [µM] | IC50 ([5]; Mus musculus, B16, B16 cells) [µM] | IC50 ([1]; C32 cells) [µM] | IC50 ([2]; read-out: GM3 C32 IC50, C32 human melanoma cells) [µM] | IC50 ([3]; read-out: GM3 B16 IC50, B16 mouse melanoma cells) [µM] | IC50 ([5]; B16 cells) [µM]
1 | CC1(NC(=O)N2CCN(c3cccc(-c4ccccc4)c3)CC2)CN2CCC1CC2 (stereo not shown) [Example 15, 4-([1,1′-Biphenyl]-3-yl)-N-(3-methylquinuclidin-3-yl)piperazine-1-carboxamide] | 0.172 | 0.368 | 0.839 | ≥ 10 | ≥ 10 |  |  |  | 
2 | CC1(NC(=O)N2CCN(c3cccc(-c4ccccc4)c3)CC2)CCN2CCC1CC2 (stereo not shown) [Example 16, 4-([1,1′-Biphenyl]-3-yl)-N-(4-methyl-1-azabicyclo[3.2.2]nonan-4-yl)piperazine-1-carboxamide] | 0.0124 | 0.181 | 0.0495 | 1 | 6.76 |  |  |  | 
3 | O=C(N1CCN(c2cccc(-c3ccccc3)c2)CC1)N1CCN2CCC1CC2 [Example 17, (4-([1,1′-Biphenyl]-3-yl)piperazin-1-yl)(1,4-diazabicyclo[3.2.2]nonan-4-yl)methanone] | 6.36 | 6.31 | 12.2 | ≥ 10 | ≥ 10 |  |  |  | 
4 | O=C(OC1CN2CCC1CC2)N1CCN(c2cccc(-c3ccccc3)c2)CC1 (stereo not shown) [Example 18, Quinuclidin-3-yl 4-([1,1′-biphenyl]-3-yl)piperazine-1-carboxylate] |  |  | 0.551 |  |  | ≥ 10 | 0.563 | 2.04 | 8.36
5 | O=C(OC1CCN2CCC1CC2)N1CCN(c2cccc(-c3ccccc3)c2)CC1 (stereo not shown) [Example 19, 1-Azabicyclo[3.2.2]nonan-4-yl 4-([1,1′-biphenyl]-3-yl)piperazine-1-carboxylate] | 0.456 | 1.48 | 2.67 | 9.09 | 7.09 |  |  |  | 
6 | O=C(OC1CC2CCN(CC2)C1)N1CCN(c2cccc(-c3ccccc3)c2)CC1 (stereo not shown) [Example 20, 1-Azabicyclo[3.2.2]nonan-3-yl 4-([1,1′-biphenyl]-3-yl)piperazine-1-carboxylate] | 10.7 | 4.47 | 16.6 | ≥ 15.1 | 7.71 |  |  |  | 
7 | CCC1(NC(=O)N2CCN(c3cccc(-c4ccccc4)c3)CC2)CN2CCC1CC2 (stereo not shown) [Example 21, 4-([1,1′-Biphenyl]-3-yl)-N-(3-ethylquinuclidin-3-yl)piperazine-1-carboxamide] | 0.0252 | 0.168 | 0.288 | 3.16 | 7.23 |  |  |  | 
8 | CCC1(NC(=O)N2CCN(c3cccc(-c4ccc(F)cc4)c3)CC2)CN2CCC1CC2 (stereo not shown) [Example 23, N-(3-Ethylquinuclidin-3-yl)-4-(4′-fluoro-[1,1′-biphenyl]-3-yl)piperazine-1-carboxamide] | 0.0909 | 0.351 | 1.58 | 3.16 | 7.07 |  |  |  | 
9 | CC1(NC(=O)C2CCN(c3cccc(-c4ccc(F)cc4)c3)CC2)CN2CCC1CC2 (stereo not shown) [Example 33, 1-(4′-Fluoro-[1,1′-biphenyl]-3-yl)-N-(3-methylquinuclidin-3-yl)piperidine-4-carboxamide] | 0.00502 | 0.237 | 0.0221 | 1 | 6.91 |  |  |  | 
10 | CC1(NC(=O)C2CCN(c3cccc(-c4ccccc4)c3)CC2)CN2CCC1CC2 (stereo not shown) [Example 35, 1-([1,1′-Biphenyl]-3-yl)-N-(3-methylquinuclidin-3-yl)piperidine-4-carboxamide] | 0.00711 | 0.149 | 0.0496 | 1 | 7.31 |  |  |  | 
11 | CC1(NC(=O)C2CCN(c3ccc(-c4ccccc4)cc3)CC2)CN2CCC1CC2 (stereo not shown) [Example 37, 1-([1,1′-Biphenyl]-4-yl)-N-(3-methylquinuclidin-3-yl)piperidine-4-carboxamide] | 0.131 | 1.8 | 1.55 | 6.9 | 7.05 |  |  |  | 

Second part, led by results:

Row | IC50 [2, 6] [µM] | IC50 [3, 7] [µM] | IC50 [4] [µM] | Structure (SMILES) | IC50 ([1]; Homo sapiens, C32, C32 cells) [µM] | IC50 ([5]; Mus musculus, B16, B16 cells) [µM] | IC50 ([1]; C32 cells) [µM] | IC50 ([2]; read-out: GM3 C32 IC50, C32 human melanoma cells) [µM] | IC50 ([3]; read-out: GM3 B16 IC50, B16 mouse melanoma cells) [µM] | IC50 ([5]; B16 cells) [µM]
12 | 1.08 | 1.68 | 9.52 | O=C(OC1CCN2CCC1CC2)N1CCN(c2cccc(-c3ccc(F)cc3)c2)CC1 (stereo not shown) [Example 24, 1-Azabicyclo[3.2.2]nonan-4-yl 4-(4′-fluoro-[1,1′-biphenyl]-3-yl)piperazine-1-carboxylate] | 3.98 | 3.61 |  |  |  | 
13 | 0.36 | > 10 | 6.9 | CC1(NC(=O)N2CCN(c3cccc(-c4ncccn4)c3)CC2)CCN2CCC1CC2 (stereo not shown) [Example 26, N-(4-Methyl-1-azabicyclo[3.2.2]nonan-4-yl)-4-(3-(pyrimidin-2-yl)phenyl)piperazine-1-carboxamide] | ≥ 10 | ≥ 10 |  |  |  | 
14 | 0.0866 | 1.44 | 1.59 | CC(C)c1cccc(N2CCN(C(=O)NC3(C)CCN4CCC3CC4)CC2)c1 (stereo not shown) [Example 28, 4-(3-Isopropylphenyl)-N-(4-methyl-1-azabicyclo[3.2.2]nonan-4-yl)piperazine-1-carboxamide] | 3.16 | ≥ 10 |  |  |  | 
15 | 0.0382 | 2.66 | 0.309 | CC1(NC(=O)N2CCN(c3cccc(C4CCCCC4)c3)CC2)CCN2CCC1CC2 (stereo not shown) [Example 29, 4-(3-Cyclohexylphenyl)-N-(4-methyl-1-azabicyclo[3.2.2]nonan-4-yl)piperazine-1-carboxamide] | 1 | 7.81 |  |  |  | 
16 | 0.0639 | 0.864 | 0.376 | CC1CN(c2cccc(-c3ccccc3)c2)CCN1C(=O)NC1(C)CCN2CCC1CC2 (stereo not shown) [Example 30, 4-([1,1′-Biphenyl]-3-yl)-2-methyl-N-(4-methyl-1-azabicyclo[3.2.2]nonan-4-yl)piperazine-1-carboxamide] | 1 | 7.64 |  |  |  | 
17 | 0.00151 | 0.0707 | 0.00406 | CC1CN(C(=O)NC2(C)CCN3CCC2CC3)CCN1c1cccc(-c2ccccc2)c1 (stereo not shown) [Example 31, 4-([1,1′-Biphenyl]-3-yl)-3-methyl-N-(4-methyl-1-azabicyclo[3.2.2]nonan-4-yl)piperazine-1-carboxamide] | 1 | 7.62 |  |  |  | 
18 | 0.000872 | 0.079 | 0.00478 | CC1(NC(=O)C2CCN(c3cccc(-c4ccc(F)cc4)c3)CC2)CCN2CCC1CC2 (stereo not shown) [Example 34, 1-(4′-Fluoro-[1,1′-biphenyl]-3-yl)-N-(4-methyl-1-azabicyclo[3.2.2]nonan-4-yl)piperidine-4-carboxamide] | 0.316 | 4.72 |  |  |  | 
19 | 0.0025 | 0.136 | 0.0103 | CC1(NC(=O)C2CCN(c3cccc(-c4ccccc4)c3)CC2)CCN2CCC1CC2 (stereo not shown) [Example 36, 1-([1,1′-Biphenyl]-3-yl)-N-(4-methyl-1-azabicyclo[3.2.2]nonan-4-yl)piperidine-4-carboxamide] | 1 | 7.57 |  |  |  | 
20 | 0.0894 | 2.6 | 1.05 | CC1(NC(=O)C2CCN(c3ccc(-c4ccccc4)cc3)CC2)CCN2CCC1CC2 (stereo not shown) [Example 38, 1-([1,1′-Biphenyl]-4-yl)-N-(4-methyl-1-azabicyclo[3.2.2]nonan-4-yl)piperidine-4-carboxamide] | 6.74 | 6.62 |  |  |  | 
